Assay results reported in patent US6310067A, “Urocanic acid derivatives” (Senju Pharmaceutical Co., Ltd., priority 1998, dated 2001).
Like-named read-outs stand apart in the source and are kept apart here.

Columns and labels:
[1] = system: type IV allergy (efferent phase), mouse contact-type dermatitis in auricles; test: Type IV allergy (efferent phase), DNFB contact-type dermatitis in auricles; type: in vivo, Male C57BL/6J mice; conditions: n = 9-11, 1 hr before induction
Description: The present compound was assessed for its effect on type IV allergy (efferent phase) through oral and topical administrations, using a DNFB contact-type dermatitis model.
(§1) Male C57BL/6J mice purchased from Clea Japan, Inc. were used.
The mice which had their abdominal hair removed on the previous day were sensitized by applying to them on a 1-cm^2 area of their abdominal surface 25 μl of 0.5% dinitrofluorobenzene (DNFB) dissolved in acetone, under anesthesia with ketamine hydrochloride: xylazine hydrochloride (9:1). Five days after the sensitization procedure, 10 μl of 0.1% DNFB dissolved in acetone was applied to the outer side of their right auricles to induce infammation. Twenty-four hrs after the induction of inflammation, the thickness of the auricles was measured with a dial thickness gauge (manufactured by Ozaki Seisakusho) and the rate of edema calculated by comparing it with pre-induction thickness.
The test compounds were administered either orally or by topically applying 15 μl of its solution onto the outer side of the auricles, 1 hr before the induction.

[2] = system: rat type I allergy (PCA reaction); test: Rat type I allergy: passive anaphylaxis (PCA) reaction, oral administration; type: in vivo, Male Wistar rats; conditions: 100 mg/5 ml/kg oral, 60 min before PCA provocation; for Optical density: 625 nm, mean ± standard deviation, n = 5-6; for Inhibition rate (%): vs CMC-Na
Description: The present compound was assessed for its effect on type I allergy through oral administration.
The compound of Example 1 100 mg/5 ml/kg
Male Wistar rats purchased from SLC Japan were used in the test.
The rats were intracutaneously injected in the back with 100 μl of antiserum (16-fold dilution) under pentobarbital anesthesia. Forty-eight hrs later, the animals were injected with 5 ml/kg of a mixture of ovalbumin (25 mg/kg) and Evans blue (12.5 mg/kg) to provoke passive anaphylaxis (PCA) reaction.
The rats were sacrificed 30 min after the provocation of PCA reaction and dye-infiltrated region of their back skin was cut out, the dye extracted with 5 ml of formamide and its optical density measured (625 nm).
Each of the test compounds was orally administered 60 min before the provocation of PCA reaction.

[3] = system: type IV allergy (afferent phase), mouse contact-type dermatitis in auricles; test: Type IV allergy (afferent phase), DNFB contact-type dermatitis in auricles, oral administration; type: in vivo, Male C57BL/6J mice; conditions: 30 mg/kg, 1 hr before sensitization, vs distilled water, n = 7-9
Description: The present compound was assessed for its effect on type IV allergy (afferent phase) through oral administrations, using a DNFB contact-type dermatitis model.
as §1
The test compounds were orally administered to the mice. One hr later, sensitization was performed by applying 30 μl of 0.5% DNFB acetone solution. Five days after the sensitization procedure, 10 μl of 0.1% DNFB dissolved in acetone was applied to their right auricles to induce contact-type dermatitis. Then, 24 hrs later, the thickness of the auricles was measured and the rate of edema calculated.

allergy = conditions: background statement, cited from earlier work
[4] = topical, concentration 0.2%, vs methanol
[5] = topical, concentration 0.5%, vs methanol
[6] = Table 4, topically applied (as titled), concentration 0.5%, vs CMC-Na

With COC(=O)C=Cc1cn(-c2ccc(N)cc2)cn1 [Example 5, 1-(4-Aminophenyl)urocanic Acid Methyl Ester] the “Inhibition rate (%)” value [1, 4] was 99.9%.
In the case of COC(=O)C=Cc1cn(CCN2CCN(C(c3ccccc3)c3ccccn3)CC2)cn1 (stereo not shown) [Example 3, 1-[Phenyl(2-pyridyl)methylpiperazinylethyl]urocanic Acid Methyl Ester], the Optical density [2] is reported as 0.409 ± 0.033, the “Inhibition rate (%)” value [2] is reported as 29.2% and the “Inhibition rate (%)” value [1, 4] is reported as 47.5%. For the same molecule, the “Inhibition rate (%)” value [1, 5] was 79.2% and the “Inhibition rate (%)” value [3] was 49.5%.
In the case of COC(=O)C=Cc1cn(CCN2CCN(C(c3ccccc3)c3ccccc3)CC2)cn1 [Example 1, 1-(Diphenylmethylpiperazinylethyl)urocanic Acid Methyl Ester], the Optical density [2] is reported as 0.413 ± 0.051, the “Inhibition rate (%)” value [2] is reported as 28.7% and the “Inhibition rate (%)” value [1, 4] is reported as 73.5%. The “Inhibition rate (%)” value [1, 5] was 83.9% and the “Inhibition rate (%)” value [3] was 47.8%.
For O=C(O)/C=C/c1c[nH]cn1 [urocanic acid, Urocanic acid], the “effect on delayed allergy” value (allergy; listed as Urocanic acid) is given as “suppressive effect on delayed allergy” and the “effect on delayed allergy” value (allergy) is given as “by no means satisfactory”.
In the case of COC(=O)C=Cc1cn(-c2nccs2)cn1 [Example 9, 1-(2,5-Thiazolyl)urocanic Acid Methyl Ester], the “Inhibition rate (%)” value [1, 6] is reported as 89.9%.
With COC(=O)C=Cc1cn(CC=Cc2ccccc2)cn1 [Example 17, 1-(3-Phenyl-2-propenyl)urocanic Acid Methyl Ester] the “Inhibition rate (%)” value [1, 6] was 70.5%.
In the case of O=C(O)C=Cc1cn(CCN2CCN(C(c3ccccc3)c3ccccc3)CC2)cn1 [Example 2, 1-(Diphenylmethylpiperazinylethyl)urocanic Acid], the “Inhibition rate (%)” value [3] is reported as 56.2%.
